Experimental data: US8183287B2, “Pharmaceutical formulations and compositions of a selective antagonist of either CXCR2 or both CXCR1 and CXCR2 and methods of using the same for treating inflammatory disorders” (Schering Corporation, priority 2006, dated 2012)

How the values were obtained:
[1] = tested on: carrageenan-induced paw edema; experiment: carrageenan-induced paw edema; assay type: in vivo; settings: rats, compared with NSAIDs
Description: (§1) WO 02/083624 describes this compound (as Examples 360.31 and 405), process of making the same, as well as treatment of chemokine-related diseases and cancer using the same. Likewise, WO 03/080053 describes the treatment of chemokine-related diseases using this compound.

[2] = tested on: pulmonary mucin production; experiment: pulmonary mucin production, prolonged treatment; assay type: in vivo
Description: as §1

[3] = tested on: histological changes in arthritic joints; experiment: histological changes in arthritic joints, prolonged treatment; assay type: in vivo; settings: rats
Description: as §1

[4] = clinical study (i): single-dose oral pharmacokinetics, Formulation 1 capsules; assay type: in vivo, human; settings: for AUC / Cmax / Tmax / half-life: both sexes, human, plasma; for AUC: po; for AUC / Cmax / Tmax / half-life / Tf Mean: healthy subjects; for Tmax: read-out: Tmax Median; for half-life: read-out: t1/2 Mean (converted)
[5] = clinical study (ii): single-dose 30 mg, fasted or fed subjects, Formulation 1 capsules; assay type: in vivo, human; settings: single oral dose 30 mg; for Cmax / AUC / half-life / Tmax: both sexes, human, plasma, po, 30 mg; for Cmax / AUC / half-life / Tmax / Tf Mean: healthy subjects; for half-life: read-out: t1/2 Mean; for Tmax: read-out: Tmax Median
[6] = clinical study in subjects with moderate to severe COPD; assay type: in vivo, human; settings: subjects with moderate to severe COPD, 3, 10, 30 mg, 12 weeks
Protocol: This study, illustrated schematically in FIG. 4, is a double-blind, placebo-controlled, randomized, two-part study in subjects with moderate to severe COPD. Part 1 is a double-blind, placebo-controlled, randomized, rising-dose study consisting of four treatment groups enrolled in three cohorts (FIG. 4A). The treatment period for each cohort is 12 weeks in duration. […] After completing the safety analyses for Part 1 for Cohorts 1-3, Part 2 is conducted as detailed below. Part 2 is a double-blind, placebo-controlled, randomized, parallel group study consisting of four treatment groups enrolled as one cohort (FIG. 4B). The treatment period for Cohort 4 is 12 weeks in duration. […] Efficacy analyses are based solely on data collected from Part 2, Cohort 4 wherein the primary efficacy parameters measured are changes from Baseline in FEV1 and changes from Baseline in SCDS, both examined as longitudinal averages over the 12-week treatment period. […]

[7] = clinical study in subjects with severe neutrophilic asthma; assay type: in vivo, human; settings: 12 weeks
Protocol: This study, illustrated schematically in FIG. 5, is a randomized, double-blind, placebo-controlled study in subjects with severe neutrophilic asthma.
Safety is assessed after approximately 30 subjects have completed 2 weeks of treatment in DRF. Variables include the effect on sputum neutrophils, PBNs, adverse events (AEs) and other safety data.
Primary Efficacy Endpoint: The primary efficacy endpoint is the asthma exacerbation status (‘yes’ for presence of an exacerbation, ‘no’ for absence) during the 12-week treatment period.

[8] = clinical study in subjects with severe psoriasis; assay type: in vivo, human; settings: 28 days
Protocol: This study, illustrated schematically in FIG. 6A, was designed as a prospective, randomized, double-blind, placebo-controlled, parallel-group study in subjects with moderate to severe psoriasis.
Each treatment is administered for 28 days. After twelve patients have completed dosing, a determination is made on the progression of the study as outlined in FIG. 6B.
Clinical Assessment. At Screening, Baseline, and Days 1, 8, 15, 29, 36, and 57 the clinical psoriasis activity (PASI and physician global assessment) is determined for each patient.
Efficacy Analyses: The primary efficacy endpoint is the response defined as a ≧50% decrease from baseline in the PASI at the end of 28 days of treatment as well as PGA. The data for the secondary endpoints detailed below are listed and summarized by treatment group using descriptive statistics. Specifically, • percent reduction on Day 28 relative to baseline of psoriatic plaque cellularity, with subpopulation analysis of neutrophils (CD50, Cathepsin G) and T-lymphocytes (CD3+, CD4+, CD8+) • change from baseline in mRNA expression of Gro-α, IL-8, and CXCR2 in the psoriatic plaque and peripheral blood • change from baseline in plasma chemokine concentrations including Gro-α and IL-8

[9] = both, human, in vivo
[10] = clinical; settings: both, human
[11] = single oral dose 150 mg (+Filgrastim 300 μg)

CC[C@@H](Nc1c(Nc2cccc(C(=O)N(C)C)c2O)c(=O)c1=O)c1ccc(C)o1 [Compound I]
ability to inhibit carrageenan-induced paw edema [1]: compares very favorably with NSAIDs
pulmonary mucin production ([2]; mice): blocks
pulmonary mucin production ([2]; rats): blocks
histological changes in arthritic joints [3]: blocks
effect of 300 μg filgrastim on the pharmacokinetic profile ([4]; 150 mg Compound I followed by filgrastim): did not alter the pharmacokinetic profile
AUC ([4]; 10 mg, single oral dose 10 mg, read-out: AUC (tf) Mean): 162 ng·h/mL
AUC ([4]; 50 mg, single oral dose 50 mg, n = 4, read-out: AUC(I) Mean): 768 ng·h/mL
AUC ([4]; 50 mg, single oral dose 50 mg, read-out: AUC (tf) Mean): 665 ng·h/mL
AUC ([4]; 100 mg, single oral dose 100 mg, read-out: AUC (tf) Mean): 827 ng·h/mL
AUC ([4]; 100 mg, single oral dose 100 mg, read-out: AUC(I) Mean): 878 ng·h/mL
AUC ([4]; 150 mg, single oral dose 150 mg, read-out: AUC (tf) Mean): 1530 ng·h/mL
AUC ([4]; 150 mg, single oral dose 150 mg, read-out: AUC(I) Mean): 1640 ng·h/mL
AUC ([4]; 200 mg, single oral dose 200 mg, read-out: AUC (tf) Mean): 1730 ng·h/mL
AUC ([4]; 200 mg, single oral dose 200 mg, read-out: AUC(I) Mean): 1810 ng·h/mL
AUC ([4]; single oral dose 150 mg (+Filgrastim 300 μg), read-out: AUC (tf) Mean): 1320 ng·h/mL
AUC ([4]; single oral dose 150 mg (+Filgrastim 300 μg), read-out: AUC(I) Mean): 1380 ng·h/mL
Cmax ([4]; single oral dose 10 mg): 73.8 ng/mL
Tmax ([4]; single oral dose 10 mg): 1 h
Cmax ([4]; single oral dose 50 mg): 153 ng/mL
half-life ([4]; single oral dose 50 mg, n = 4): 15.8 h
Tmax ([4]; single oral dose 50 mg): 0.75 h
Cmax ([4]; single oral dose 100 mg): 261 ng/mL
Tmax ([4]; single oral dose 100 mg): 0.75 h
half-life ([4]; single oral dose 100 mg): 11.8 h
Cmax [4, 11]: 292 ng/mL
Tmax [4, 11]: 0.75 h
half-life [4, 11]: 13 h
Cmax ([4]; single oral dose 150 mg): 364 ng/mL
Tmax ([4]; single oral dose 150 mg): 0.75 h
half-life ([4]; single oral dose 150 mg): 16.7 h
Cmax ([4]; single oral dose 200 mg): 416 ng/mL
Tmax ([4]; single oral dose 200 mg): 0.625 h
half-life ([4]; single oral dose 200 mg): 11.3 h
increase of Cmax and AUC with dose ([4]; from 10 to 200 mg): dose-related, but not dose-proportional
Tf Mean ([4]; single oral dose 10 mg): 14 h
Tf Mean ([4]; single oral dose 50 mg): 46 h
Tf Mean ([4]; single oral dose 100 mg): 38 h
Tf Mean [4, 11]: 58 h
Tf Mean ([4]; single oral dose 150 mg): 64 h
Tf Mean ([4]; single oral dose 200 mg): 52 h
Cmax ([5]; fasted): 147 ng/mL
AUC ([5]; fasted, n = 10, read-out: AUC(I) Mean): 563 ng·h/mL
half-life ([5]; fasted, n = 10): 20.8 h
AUC ([5]; fasted, read-out: AUC (tf) Mean): 484 ng·h/mL
Tmax ([5]; fasted): 0.75 h
Cmax ([5]; fed): 122 ng/mL
AUC ([5]; fed, n = 7, read-out: AUC(I) Mean): 572 ng·h/mL
half-life ([5]; fed, n = 7): 22.9 h
AUC ([5]; fed, read-out: AUC (tf) Mean): 489 ng·h/mL
Tmax ([5]; fed): 2 h
mean Cmax with food lower than Compound I alone [5]: 17%
Tf Mean ([5]; fasted): 40 h
Tf Mean ([5]; fed): 32.3 h
sputum neutrophil and peripheral blood neutrophils [6]: reduction in sputum neutrophil and peripheral blood neutrophils
asthma exacerbation [7]: reduction in asthma exacerbation
PASI [8]: reduction in PASI
Median max values [9]: 0.5 to 2 h
Vd/F ([10]; in vivo): 1470 to 2200 L
half-life ([10]; plasma, oral): 11.3 to 22.9 h
